The record followed here is ChEMBL document CHEMBL4303122, “Identification of potential treatments for COVID-19 through artificial intelligence-enabled phenomic analysis of human cells infected with SARS-CoV-2” (2020).

Several values for one entry are separate records, joined by “and”; a condition that tells them apart may be missing. Equal values may be shown once. Where a name gives a salt, the structure may show the parent alone.

The subject of one experiment is SARS-CoV-2. Briefly: Antiviral activity against SARS-CoV-2 (USA-WA1/2020 strain) measured by imaging in HRCE cells at MOI 0.4 after 96 hrs (reported as hit score from 0-1 for on-disease vs off-disease activity: scores >0.6 considered hits). The class given is functional. Particulars: Homo sapiens.
Turning to MONOCTANOIN, the Hit score was -0.0148. On the same count and under the same terms, the figure for GADODIAMIDE is 0.193; for OXALIPLATIN it is 0.0878; for SPIRAMYCIN it is 0.139 and 0.136.

Regarding Eplivanserin hemifumarate, the Hit score was -0.0126. For THIMEROSAL, the Hit score is -0.0445.

For the compound FLUPENTIXOL, the Hit score amounted to 0.12. hemomex-s gave a Hit score of 0.064. The same measure, in the same setting: the same measure for perchlozone: 0.0874. For the compound stetaderm, the Hit score came out at 0.101.

The subject of the next experiment is SARS-CoV-2. Briefly: Antiviral activity against SARS-CoV-2 (USA-WA1/2020 strain) measured by imaging in Vero cells at MOI 0.08 after 48 hrs (reported as hit score from 0-1 for on-disease vs off-disease activity: scores >0.6 considered hits). In kind it is functional, Chlorocebus sabaeus.
Conditions: not given
Consider `CCN(CC)CCCC(C)Nc1ccnc2cc(Cl)ccc12` (configuration not stated) [CHLOROQUINE], for which the Hit score stood at 0.6704.

Compound `N#C[C@@]1(c2ccc3c(N)ncnn23)O[C@H](CO)[C@@H](O)[C@H]1O` [GS-441524] came in with a Hit score of 1.

`C=C[C@H]1CN2CC[C@H]1C[C@H]2[C@H](OC(=O)OCC)c1ccnc2ccc(OC)cc12` [QUININE ETHYLCARBONATE]: the Hit score was 0.1489. Same read-out and setting: the figure for `C[C@H]1C[C@@H]2[C@H]([C@@H](O)C[C@@]3(C)[C@H]2CC[C@]3(O)C(=O)COC(=O)CCC(=O)[O-])[C@@]2(C)C=CC(=O)C=C12.[Na+]` [METHYLPREDNISOLONE SODIUM SUCCINATE] is 0.2294; for `CC1=CC(=O)C(C(C)C)=CC1=O` [THYMOQUINONE] it is 0.2773; for `CN(C)C(=O)COC(=O)Cc1ccc(OC(=O)c2ccc(NC(=N)N)cc2)cc1` [CAMOSTAT] it is 0.2137. The same measure, in the same setting: the same measure for `CC(C)Cn1cnc2c(N)nc3ccccc3c21` [IMIQUIMOD]: 0.3174. Still for that read-out and setting: the figure for `CC(C)c1nc(CN(C)C(=O)N[C@@H](CCN2CCOCC2)C(=O)N[C@H](CC[C@H](Cc2ccccc2)NC(=O)OCc2cncs2)Cc2ccccc2)cs1` [COBICISTAT] is 0.2397; for `C=C[C@H]1CN2CC[C@H]1C[C@H]2[C@H](O)c1ccnc2ccc(OC)cc12` [QUININE] it is 0.2113; for `Nc1nc(O)c2ncn(CCC(CO)CO)c2n1` [PENCICLOVIR] it is 0.1283. The compound `CCC(CC)O[C@@H]1C=C(C(=O)O)C[C@H](N)[C@H]1NC(C)=O` [OSELTAMIVIR CARBOXYLATE] gave a Hit score of 0.1922.

`Cc1cccc(C)c1OCC(=O)N[C@@H](Cc1ccccc1)[C@@H](O)C[C@H](Cc1ccccc1)NC(=O)[C@H](C(C)C)N1CCCNC1=O` [LOPINAVIR] yielded a Hit score of 0.1843. Same read-out and setting: the figure for `CC[C@H](Nc1ncnc2[nH]cnc12)c1nc2cccc(F)c2c(=O)n1-c1ccccc1` [IDELALISIB] is -0.08519. The compound `CCOC(=O)[C@H]1O[C@@H]1C(=O)N[C@@H](CC(C)C)C(=O)NCCC(C)C` [ALOXISTATIN] came in with a Hit score of 0.4403. Still for that read-out and setting: the same measure for `OC[C@H]1NC[C@H](O)[C@@H](O)[C@H]1O`: 0.1704. The same measure, in the same setting: the same measure for `CCOC(=O)c1c(CSc2ccccc2)n(C)c2cc(Br)c(O)c(CN(C)C)c12` [UMIFENOVIR]: 0.1334; for `O=S(=O)(c1cccc2c(Cl)cccc12)N1CCCNCC1`: 0.1073; for `NC(=O)c1nc(F)cnc1O`: 0.1243. The same measure, in the same setting: the figure for `COc1ccc2c(c1)c(CC(=O)O)c(C)n2C(=O)c1ccc(Cl)cc1` [INDOMETHACIN] is 0.1024; for `CC[C@H]1OC(=O)[C@@](C)(F)C(=O)[C@H](C)[C@@H](O[C@@H]2O[C@H](C)C[C@H](N(C)C)[C@H]2O)[C@](C)(OC)C[C@@H](C)C(=O)[C@H](C)[C@H]2N(CCCCn3cc(-c4cccc(N)c4)nn3)C(=O)O[C@]12C` [SOLITHROMYCIN] it is 0.6032; for `CC(C)c1nc(CN(C)C(=O)N[C@H](C(=O)N[C@@H](Cc2ccccc2)C[C@H](O)[C@H](Cc2ccccc2)NC(=O)OCc2cncs2)C(C)C)cs1` [RITONAVIR] it is 0.1477.

In turn, `NC(=O)c1ncn([C@@H]2O[C@H](CO)[C@@H](O)[C@H]2O)n1` [RIBAVIRIN] came in with a Hit score of 0.1047. `CCC(CC)COC(=O)[C@H](C)N[P@](=O)(OC[C@H]1O[C@@](C#N)(c2ccc3c(N)ncnn23)[C@H](O)[C@@H]1O)Oc1ccccc1` had a Hit score of 0.5934. On the same count and under the same terms, the figure for `N[C@@H](CCN[C@@H](CCN1CC[C@H]1C(=O)O)C(=O)O)C(=O)O` is 0.1086; for `CCN(CCO)CCCC(C)Nc1ccnc2cc(Cl)ccc12.O=S(=O)(O)O` (configuration not stated) [HYDROXYCHLOROQUINE SULFATE] it is 0.5553. On the same count and under the same terms, the same measure for `CC(C)CN(C[C@@H](O)[C@H](Cc1ccccc1)NC(=O)O[C@H]1CO[C@H]2OCC[C@H]21)S(=O)(=O)c1ccc(N)cc1`: 0.153; for `CC(C)(C)NC(=O)[C@@H]1CN(Cc2cccnc2)CCN1C[C@@H](O)C[C@@H](Cc1ccccc1)C(=O)N[C@H]1c2ccccc2C[C@H]1O.O`: 0.2525; for `OC[C@H]1O[C@@H](Oc2cc(O)cc(/C=C/c3ccc(O)cc3)c2)[C@H](O)[C@@H](O)[C@@H]1O` [PICEID]: 0.06165. With `C1=N/C2=N/c3ccc(OCCN4CCCC4)c(c3)COC/C=C/COCc3cccc(c3)C(=C1)N2` [PACRITINIB], the Hit score is 0.2418. Same read-out and setting: the same measure for `O=C(CCCN1CCC(O)(c2ccc(Cl)cc2)CC1)c1ccc(F)cc1` [HALOPERIDOL]: 0.07542. The same measure, in the same setting: the figure for `COC(=O)/C=C/C(=O)OC` [DIMETHYL FUMARATE] is 0.1078. Still for that read-out and setting: the same measure for `CC(C)OC(=O)OCOP(=O)(CO[C@H](C)Cn1cnc2c(N)ncnc21)OCOC(=O)OC(C)C.O=C(O)/C=C/C(=O)O` [TENOFOVIR DISOPROXIL FUMARATE]: 0.1962.
